Results reported in publication PMC4090575, “An In Vivo Microdialysis Study of FLZ Penetration through the Blood-Brain Barrier in Normal and 6-Hydroxydopamine Induced Parkinson's Disease Model Rats” (BioMed Research International, 2014).
Like-named read-outs stand apart in the source and are kept apart here. Blank lines part the entries; values can stand above or below the molecule they belong to.

Tests used:
[1] = In vivo microdialysis pharmacokinetics of free FLZ in blood and brain dialysates, with or without zosuquidar·3HCl pretreatment; parameters: species or system rat; conditions: for AUC, Brain / AUC: n = 3; for AUC / clearance / half-life / unbound brain-to-blood AUC ratio (Kp,uu): rat, 35 mg/kg; for clearance: read-out: CLz, Blood (converted); for unbound brain-to-blood AUC ratio (Kp,uu): brain dialysate / blood dialysate, BBB penetration ratio of free FLZ, read-out: Ri (AUCbrain/AUCblood)
Method: (§1) Rats were divided into four groups (n = 3 animals per group): three normal rats treated with FLZ only (FLZ only-N); three PD rats treated with FLZ only (FLZ only-PD); three normal rats treated with FLZ plus zosuquidar·3HCl (FLZ + ZOSUQ-N); and three PD rats treated with FLZ plus zosuquidar·3HCl (FLZ + ZOSUQ-PD). The system was equilibrated for 1 h after surgery. FLZ was dissolved in a mixture of dimethyl sulfoxide, polyethylene glycol 400, and sodium chloride injection (1 : 4 : 5 (v/v/v)). All rats received FLZ (35 mg/kg) via intravenous injection into the tail vein (with or without pretreatment with zosuquidar·3HCl). Rats in the FLZ + ZOSUQ-N and FLZ + ZOSUQ-PD groups received an i.v. injection of zosuquidar·3HCl (20 mg/kg, dissolved in 20% ethanol-saline) 10 min before FLZ administration. The dose, route of administration, and timing of P-gp inhibition were based on those described in earlier studies. Microdialysis samples were collected from the striatum and the jugular vein at 15 min intervals for 1 h before (blanks) and for 4 h after FLZ administration. The samples were stored at −80°C until they were analysed by ultraperformance liquid chromatography-tandem mass spectrometry (UPLC-MS/MS). At the end of the experiment, the rats were decapitated and the brains were removed for histological verification of probe placement. Data were discarded if the probe placement was outside the target area.
(§2) The microdialysis system comprised a CMA 470 refrigerated fraction collector, a CMA 402 syringe pump, and fluorinated ethylene propylene tubing (CMA, Solna, Sweden). CMA microdialysis probes for the blood (CMA 20, 10 mm in length) and brain (CMA 12, 4 mm in length) were also used. Animals were anaesthetized with urethane (1.4 g/kg, i.p.) before surgery and remained anesthetized throughout the experimental period. The body temperature of each rat was maintained at 37°C until the end of the experiment using a heating pad. The blood microdialysis probe was positioned within the jugular vein toward the right atrium and sutured to the surrounding muscle to prevent it from slipping out. The probe was then perfused with heparinized ringer's solution (1500 U/mL) for 15 min. The microdialysis guide cannula was implanted into the right striatum zone (anterior-posterior: 0.2 mm; lateral: 3.0 mm; dorsal-ventral: 3.5 mm from bregma) and fixed to the skull with stainless steel screws and dental acrylic. The brain microdialysis probe was inserted through the guide cannula.
(§3) In the pilot microdialysis experiment, ringer's solution was perfused through the probe at a flow rate of 1.5 μL/min and the dialysate samples were collected every 15 min from 90 min before until 6 h after dosing with FLZ. In all the other groups, the probes were perfused with ringer's solution containing 4% BSA, with the flow rate set at 1.0 μL/min.
(§4) The relative recovery of FLZ using the microdialysis probe was estimated using a retrodialysis method after sample collection and clearing overnight until there is no drug in the tissue and blood. Perfusates containing FLZ (20 ng/mL for the brain and 200 ng/mL for the blood) were passed separately into the brain and blood through the microdialysis probes at a constant flow rate of 1 μL/min. After a 1-hour stabilization period, the dialysates were collected at 15 min intervals for 1 hour. The concentrations of FLZ in the dialysate (C out) and perfusate (C in) were analysed by UPLC-MS/MS as described in Section 2.7. Recovery (R) was expressed by the following equation: R = 1 − (C out/C in).
(§5) Pharmacokinetic parameters were calculated from the observed data by noncompartmental analysis using the Drug and Statistics for Windows software package (DAS, version 2.0, Chinese Pharmacological Association, China). […]

P-gp = assay: as above; parameters: species or system rat; conditions: rat, iv, with zosuquidar·3HCl 20 mg/kg i.v. 10 min before FLZ; for AUC / clearance / half-life: 35 mg/kg; for AUC: zosuquidar·3HCl 20 mg/kg i.v. 10 min before FLZ 35 mg/kg i.v., n = 3; for clearance / half-life / unbound brain-to-blood AUC ratio (Kp,uu): zosuquidar·3HCl 20 mg/kg i.v. pretreatment, FLZ 35 mg/kg i.v.; for clearance: read-out: CLz, Blood (converted); for unbound brain-to-blood AUC ratio (Kp,uu): brain dialysate / blood dialysate, read-out: Ri (AUCbrain/AUCblood)
Method: as §1, §2, §3, §4, §5

[2] = Stability of FLZ in UPLC-MS/MS method validation; assay type: physicochemical; conditions: during preparation, after three freeze/thaw cycles and after storing at −80°C for 45 days
Method: Stock solutions of FLZ and IS were prepared separately in methanol at a target concentration of 1 mg/mL and then diluted with methanol to create working solutions of FLZ at concentrations of 1, 3, 10, 30, 100, 300, 1000, 1500, 2500, 5000, 10000, and 15000 ng/mL and IS at concentrations of 10 ng/mL. All solutions were stored in glass tubes at 4°C for less than 2 months until analysis and were protected from light. FLZ calibration standards (0.1, 0.3, 1, 3, 10, 30, 100, 150, 250, 500, 1000, and 1500 ng/mL) were prepared by spiking the blank perfusate with the appropriate working standard solution of FLZ. Quality control samples were prepared using the working solutions from the same stock solution (0.1, 0.3, 1, 10, 100, and 1000 ng/mL), thereby representing the entire range of concentrations.
Assay validation to meet the acceptance criteria was performed according to the bioanalytical method validation guideline (European Medicines Agency Guideline on Bioanalytical Method Validation, July 21, 2011). The assay was validated in terms of specificity, matrix effect, recovery, calibration curve, precision, accuracy (intra- and interday), lower limit of quantification (LLOQ), and stability (autosampler, freeze-thaw, and long-term).

[3] = parameters: method as in PMID 22472186; conditions: cited from earlier work
plasma proteins = test system: plasma proteins; parameters: method as in Our previous work; conditions: ref Our previous work; cited from earlier work
[4] = stated with the material supplied; source not given; cited from earlier work
[5] = test system: P-gp mediated multidrug resistance; parameters: method as in PMID 9381979; conditions: high therapeutic index; cited from earlier work
[6] = FLZ + ZOSUQ-N group relative to FLZ only-N group, normal rats
[7] = FLZ + ZOSUQ-PD group relative to FLZ only-PD group, PD rats
[8] = blood (jugular vein) dialysate, FLZ + ZOSUQ-N: normal rats, blood dialysate
[9] = blood (jugular vein) dialysate, FLZ + ZOSUQ-PD: 6-OHDA PD rats, blood dialysate

reduction in FLZ blood dialysate AUC ([1]; FLZ + ZOSUQ-N group compared with FLZ only-N group, normal rats, not statistically significant): 34% | increase in brain : blood free FLZ AUC ratio [1, 6]: 3 fold | increase in mean brain dialysate FLZ AUC [1, 6]: 123% | AUC, Brain ([1]; FLZ + ZOSUQ-N: normal rats, zosuquidar·3HCl 20 mg/kg i.v. pretreatment, FLZ 35 mg/kg i.v., brain dialysate): 324 ± 46∗∗ μg/L × h | decrease in FLZ blood dialysate AUC [1, 7]: 56% | increase in FLZ brain dialysate AUC [1, 7]: 130% | increase in brain : blood free FLZ AUC ratio [1, 7]: 4 fold | AUC, Brain ([1]; FLZ + ZOSUQ-PD: 6-OHDA PD rats, zosuquidar·3HCl 20 mg/kg i.v. pretreatment, FLZ 35 mg/kg i.v., brain dialysate): 333 ± 103∗ μg/L × h | AUC, Brain ([1]; FLZ only-N: normal rats, FLZ 35 mg/kg i.v., brain (striatum) dialysate): 145 ± 25 µg·h/L | decrease in brain : blood free FLZ AUC ratio ([1]; FLZ only-PD group relative to FLZ only-N group, not statistically significant): 20% | AUC, Brain ([1]; FLZ only-PD: 6-OHDA PD rats, FLZ 35 mg/kg i.v., brain (striatum) dialysate): 145 ± 18 µg·h/L | AUC ([1]; blood (jugular vein) dialysate, iv, FLZ only-N: normal rats, FLZ 35 mg/kg i.v., blood dialysate, free FLZ): 2350 ± 39 ng·h/mL | clearance ([1]; blood (jugular vein) dialysate, iv, FLZ only-N: normal rats, FLZ 35 mg/kg i.v., blood dialysate): 248 mL/min/kg | half-life ([1]; blood (jugular vein) dialysate, iv, FLZ only-N: normal rats, FLZ 35 mg/kg i.v., blood dialysate, read-out: t 1/2, Blood (converted)): 1.21 ± 0.22 h | AUC ([1]; blood (jugular vein) dialysate, iv, FLZ only-PD: 6-OHDA PD rats, FLZ 35 mg/kg i.v., blood dialysate, free FLZ): 3070 ± 621 ng·h/mL | clearance ([1]; blood (jugular vein) dialysate, iv, FLZ only-PD: 6-OHDA PD rats, FLZ 35 mg/kg i.v., blood dialysate): 195 mL/min/kg | half-life ([1]; blood (jugular vein) dialysate, iv, FLZ only-PD: 6-OHDA PD rats, FLZ 35 mg/kg i.v., blood dialysate, read-out: t 1/2, Blood (converted)): 1.34 ± 0.03 h | half-life ([1]; blood dialysate and brain dialysate, intravenous, present study, both in the blood and brain, free FLZ, read-out: t 1/2 of FLZ (converted)): ~1.1 h | half-life ([1]; brain (striatum) dialysate, iv, FLZ only-N: normal rats, FLZ 35 mg/kg i.v., brain dialysate, read-out: t 1/2, Brain (converted)): 1.15 ± 0.57 h | half-life ([1]; brain (striatum) dialysate, iv, FLZ only-PD: 6-OHDA PD rats, FLZ 35 mg/kg i.v., brain dialysate, read-out: t 1/2, Brain (converted)): 1.31 ± 0.29 h | unbound brain-to-blood AUC ratio (Kp,uu) ([1]; iv, FLZ only-N: normal rats, FLZ 35 mg/kg i.v.): 0.0617 ± 0.0105 | unbound brain-to-blood AUC ratio (Kp,uu) ([1]; iv, FLZ only-PD: 6-OHDA PD rats, FLZ 35 mg/kg i.v.): 0.0492 ± 0.0158 | AUC (P-gp; [8]): 1560 ± 881 ng·h/mL | clearance (P-gp; [8]): 473 mL/min/kg | half-life (P-gp; blood (jugular vein) dialysate, FLZ + ZOSUQ-N: normal rats, blood dialysate, read-out: t 1/2, Blood (converted)): 1.11 ± 0.13 h | AUC (P-gp; [9]): 1330 ± 259 ng·h/mL | clearance (P-gp; [9]): 447 mL/min/kg | half-life (P-gp; blood (jugular vein) dialysate, FLZ + ZOSUQ-PD: 6-OHDA PD rats, blood dialysate, read-out: t 1/2, Blood (converted)): 1.43 ± 0.25 h | half-life (P-gp; brain (striatum) dialysate, FLZ + ZOSUQ-N: normal rats, brain dialysate, read-out: t 1/2, Brain (converted)): 1.04 ± 0.43 h | half-life (P-gp; brain (striatum) dialysate, FLZ + ZOSUQ-PD: 6-OHDA PD rats, brain dialysate, read-out: t 1/2, Brain (converted)): 1.14 ± 0.27 h | unbound brain-to-blood AUC ratio (Kp,uu) (P-gp; FLZ + ZOSUQ-N: normal rats): 0.248 ± 0.114 | unbound brain-to-blood AUC ratio (Kp,uu) (P-gp; FLZ + ZOSUQ-PD: 6-OHDA PD rats): 0.246 ± 0.027 | stability of FLZ [2]: remained stable
SMILES: COc1ccc(OC)c(C(=Cc2ccc(O)c(OC)c2)C(=O)NCCc2ccc(O)cc2)c1 [FLZ, N-[2-(4-hydroxy-phenyl)-ethyl]-2-(2,5-dimethoxy-phenyl)-3-(3-methoxy-4-hydroxy-phenyl)-acrylamide]
increase in FLZ brain-to-plasma ratio with zosuquidar·3HCl pretreatment versus control ([3]; 0.25 min postdose, brain homogenate-to-plasma concentration ratio): about 3.1 fold | t 1/2 of FLZ reported previously [3]: about 0.5 h | binding rate of FLZ to plasma proteins (plasma proteins): about 90% | lipophilicity [4]: lipophilic | pKa [4]: 13.75 ± 0.46 | water solubility [4]: poorly water-soluble

SMILES: Cl.Cl.Cl.O[C@@H](COc1cccc2ncccc12)CN1CCN([C@@H]2c3ccccc3[C@@H]3[C@H](c4ccccc42)C3(F)F)CC1 [Zosuquidar·3HCl, zosuquidar trihydrochloride]
active doses in in vivo antitumor efficacy experiments [5]: 1 to 30 mg/kg
